Laboratory results from patent publication US20080234203A1, “Use of Substances Having Oxytocin Antagonistic Properties” (Ferring BV, priority 2004, published 2008).

Columns and labels:
[1] = system: isolated rat uterine artery; assay: In vitro contractility of isolated rat uterine artery from nonpregnant, midpregnant and late pregnant rats
Description: The X axis-represents the oxytocin concentration {log M} and the Y axis represents % of phenylephrine-induced contraction. […] The following pD2 values were obtained, non-pregnant (9.32±0.41, n=7), midpregnant (7.46±0.13, n=6) and late pregnant (7.87±0.39, n=6). It could be speculated that the generally lower sensitivity of uterine vessels during pregnancy is related to eventually higher local oxytocin concentrations.
(§1) Nonpregnant or timed-pregnant Sprague-Dawley rats (of a 22-day pregnancy, with day 1 being the day when the sperm plug was observed) were obtained from Charles River Laboratories (Houston, Tex.). In some studies Spontaneously Hypertensive Rats (SHR) and their respective normatensive controls (WKY) were used. Rats were killed by means of carbon dioxide inhalation on day 14 (midterm pregnant) or day 22 before labor (term pregnant) or during the estrus cycle (nonpregnant). […] Contractions of uterine vascular tissues (cut into rings) were recorded and stored on computer with the DI-220 (DataQ Instruments Inc, Akron, Ohio) data acquisition system. […]
(§2) Data were analyzed by using Windaq/200 (DataQ Instruments Inc) software. Integral activity as an area under the tracing of vascular contractions for 10 minutes (expressed as milligrams per second) before (basal activity) and after the addition of each concentration of the agent was calculated and compared with basal activity (as percentage change). […] The concentration of oxytocin causing 50% of the maximal effect was determined, and the −log50 of the half maximal effect and the area under the concentration-response curves were calculated and compared. The data are expressed as mean ± SD. […]

[2] = system: isolated uterine artery, femoral artery, carotoid artery and aorta; assay: In vitro contractility of isolated arteries from non-pregnant WKY rats; parameters: species or system Wistar (WKY) rats
Description: as §1, §2

[3] = system: isolated uterine artery, femoral artery, carotoid artery and aorta; assay: In vitro contractility of isolated arteries from non-pregnant SHR rats; parameters: species or system spontaneous hypertensive (SHR) rats; conditions: uterine arteries compared with femoral artery
Description: as §1, §2

pregnant rats = assay: Blood pressure measurements in pregnant rats (tail cuff); format: in vivo, rat; conditions: 200 μg/d, gestational day 19 to 22 and pp1 to pp7
Description: The X axis represents the time of pregnancy (gestational age), and the Y axis represents the systolic blood pressure (mmHg). Barusiban (200 μg/d), atosiban (200 μg/d) and control (saline) (200 μg/d) were administered to pregnant rats from gestational day 19 to 22 and during pp1 to pp7 (pp=post partum).
Animals. Adult nulliparous pregnant rats (300-325 g body weight) were purchased from Harlan Sprague Dawley, Inc (Indianapolis, Ind.), and were received in the animal facilities on day 16 of pregnancy (with day 1 being the day of the positive sperm smear result). All animals were given free access to food and water.
Blood pressure measurement. Starting on day 19 of pregnancy systolic blood pressure was measured daily or every other day with a pneumatic tail cuff device (NARCO Biosystems, Inc, Austin, Tex.) in animals that had been warmed in a metal chamber maintained at approximately 30° C. Blood pressure values obtained from 3 consecutive measurements were averaged and recorded as the pressure for a given rat at each point. Measurements of systolic blood pressure of all animals were carried out until delivery and for seven days post partum (pp7) All animals delivered on day 22 of gestation, the expected day of delivery. Three groups of animals were studied: Group 1. […]
Statistical analysis. Mean +/− SEM values were calculated for blood pressure levels on each day of pregnancy and post partum. […]

## CC[C@H](C)[C@@H]1NC(=O)[C@H](Cc2ccc(O)cc2)NC(=O)[C@@H](N)CSSC[C@@H](C(=O)N2CCC[C@H]2C(=O)N[C@@H](CC(C)C)C(=O)NCC(N)=O)NC(=O)[C@H](CC(N)=O)NC(=O)[C@H](CCC(N)=O)NC1=O [oxytocin]
[1]; uterine artery of late pregnant rats, n=6
  pD2 (oxytocin-induced contraction, % of phenylephrine-induced contraction): 7.87±0.39
[1]; uterine artery of midpregnant rats, n=6
  pD2 (oxytocin-induced contraction, % of phenylephrine-induced contraction): 7.46±0.13
[1]; uterine artery of non-pregnant rats, n=7
  pD2 (oxytocin-induced contraction, % of phenylephrine-induced contraction): 9.32±0.41
[2]; uterine arteries compared with femoral artery, carotoid artery and aorta, non-pregnant WKY rats
  oxytocin sensitivity (contraction dose/response): outstanding high sensitivity
[2]; uterine arteries of non-pregnant WKY rats compared with SHR rats
  oxytocin sensitivity (contraction dose/response): higher sensitivity
[3]
  oxytocin sensitivity (contraction dose/response): highest sensitivity

## C^4,6, S^1-cyclo [Barusiban, C^4,6, S^1-cyclo [N-(3-sulfanylpropanoyl) -D-tryptophyl-L -isoleucyl-L-alloisoleucyl-L-asparaginyl-L-2-aminobutanoyl-N-methyl-L-ornithinol]]
Pregnant rats
  systolic blood pressure: beneficial drop in systolic blood pressure around birth
